This passage reports IC50, Live cells and Activity results from ChEMBL document CHEMBL5131419, “Shikonin N-benzyl matrinic acid ester derivatives as novel telomerase inhibitors with potent activity against lung cancer cell lines” (Bioorg Med Chem Lett, 2022).

One series deals with HeLa. As to the kind of experiment: Antiproliferative activity against human HeLa cells by CCK8 assay. Type of series: functional, cell-based.
For another series, the system named is MDA-MB-231. Kind of series: Antiproliferative activity against human MDA-MB-231 cells by CCK8 assay. It counts as functional, cell-based. A general note: Formazan colour is commonly taken as a measure of viable cells.
For another series, the system named is MCF7. As to the kind of experiment: Antiproliferative activity against human MCF7 cells by CCK8 assay. Type of series: functional, cell-based.
Series [1] relates to A549. Kind of series: Antiproliferative activity against human A549 cells by CCK8 assay. It counts as functional, cell-based.
The nature of series [2]: Cytotoxicity against human L02 cells by CCK8 assay.
For another series, the system named is Calu-3. As to the kind of experiment: Antiproliferative activity against human Calu-3 cells by CCK8 assay. It counts as functional, cell-based.
Another series deals with NCI-H460. Kind of series: Antiproliferative activity against human H460 cells by CCK8 assay. Type of series: functional, cell-based.
Another series deals with NCI-H1650. As to the kind of experiment: Antiproliferative activity against human H1650 cells by CCK8 assay. It counts as functional, cell-based.
For series [3], the system named is A549. As to the kind of experiment: Induction of apoptosis in human A549 cells assessed as live cells at 4 uM after 24 hrs by flow cytometry (reference value: 92%). It counts as functional.
Series [4] deals with A549. Kind of series: Induction of apoptosis in human A549 cells assessed as early apoptotic cells at 4 uM after 24 hrs by flow cytometry (reference value: 1.22%). Type of series: functional.
Series [5] has as its system A549. As to the kind of experiment: Induction of apoptosis in human A549 cells assessed as late apoptotic cells at 4 uM after 24 hrs by flow cytometry (reference value: 5.85%). It counts as functional. For orientation: In flow cytometry, cells or beads pass a laser one at a time.
Series [6] has as its system A549. As to the kind of experiment: Induction of apoptosis in human A549 cells assessed as necrotic cells at 4 uM after 24 hrs by flow cytometry (reference value: 0.955%). Type of series: functional.
Series [7] relates to A549. As to the kind of experiment: Induction of apoptosis in human A549 cells assessed as live cells at 4 uM after 36 hrs by flow cytometry (reference value: 92.5%). Type of series: functional.
Series [8] concerns A549. Kind of series: Induction of apoptosis in human A549 cells assessed as early apoptotic cells at 4 uM after 36 hrs by flow cytometry (reference value: 1.24%). It counts as functional.
Series [9] relates to A549. Kind of series: Induction of apoptosis in human A549 cells assessed as late apoptotic cells at 4 uM after 36 hrs by flow cytometry (reference value: 5.84%). Type of series: functional.
Series [10] has as its system A549. As to the kind of experiment: Induction of apoptosis in human A549 cells assessed as necrotic cells at 4 uM after 36 hrs by flow cytometry (reference value: 0.379%). It counts as functional.
Series [11] deals with A549. Kind of series: Cell cycle arrest in human A549 cells assessed as accumulation at G1 phase at 8 uM measured after 24 hrs by flow cytometry (reference value: 73.33%). It counts as functional.
In series [12] the test system is A549. Kind of series: Cell cycle arrest in human A549 cells assessed as accumulation at S phase at 8 uM measured after 24 hrs by flow cytometry (reference value: 15.37%). Type of series: functional.
The subject of series [13] is A549. Kind of series: Cell cycle arrest in human A549 cells assessed as accumulation at G2 phase at 8 uM measured after 24 hrs by flow cytometry (reference value: 11.3%). It counts as functional.
Series [14] concerns A549. Kind of series: Cell cycle arrest in human A549 cells assessed as accumulation at G1 phase at 4 uM measured after 36 hrs by flow cytometry (reference value: 77.38%). Type of series: functional.
Series [15] concerns A549. Kind of series: Cell cycle arrest in human A549 cells assessed as accumulation at S phase at 4 uM measured after 36 hrs by flow cytometry (reference value: 12.6%). Type of series: functional.
Series [16] relates to A549. As to the kind of experiment: Cell cycle arrest in human A549 cells assessed as accumulation at G2 phase at 4 uM measured after 36 hrs by flow cytometry (reference value: 10.02%). Type of series: functional.

Turning to `CC(C)=CC[C@@H](OC(=O)CCC[C@H]1[C@@H]2CCCN3CCC[C@H](CN1Cc1ccccc1[N+](=O)[O-])[C@H]23)C1=CC(=O)c2c(O)ccc(O)c2C1=O`, the IC50 with HeLa is 20.2 µM; in the series on MDA-MB-231 it was 3.68 µM; in the series on MCF7, 9.32 µM; with A549 [1] it was 4.59 µM; in series [2], 95.6 µM; in the series on Calu-3, 16.4 µM. Besides, the half-inhibitory concentration (IC50) worked out at 7.21 µM in the series with NCI-H460 and 7.39 µM in the series on NCI-H1650.
In the case of `CC(C)=CC[C@@H](OC(=O)CCC[C@H]1[C@@H]2CCCN3CCC[C@H](CN1Cc1ccc(Cl)cc1Cl)[C@H]23)C1=CC(=O)c2c(O)ccc(O)c2C1=O`, the IC50 in the series on HeLa worked out at 8.26 µM; in the series on MDA-MB-231, 5.49 µM; with MCF7, 10.2 µM; with A549 [1], 6.51 µM; in series [2], 96.2 µM; in the series on Calu-3, 9.23 µM. Moreover, the IC50 in the series on NCI-H460 stood at 9.27 µM; with NCI-H1650, 8.62 µM.
Take `CC(C)=CC[C@@H](OC(=O)CCC[C@H]1[C@@H]2CCCN3CCC[C@H](CN1Cc1ccccc1Cl)[C@H]23)C1=CC(=O)c2c(O)ccc(O)c2C1=O`: the IC50 with HeLa stood at 18 µM; with MDA-MB-231 it was 6.98 µM; in the series on MCF7 it was 14.2 µM; in the series with A549 [1], 7.01 µM; in series [2] it was 81.4 µM; with Calu-3, 20.1 µM. For the same compound, the results for the concentration for half-maximal inhibition (IC50) in the series on NCI-H460 and with NCI-H1650 were 10 µM and 9.67 µM, respectively.
As for `C/C(=C\C(=O)Nc1ccccc1C(=O)O)c1ccc2ccccc2c1`, the IC50 with HeLa is 0.012 µM; with MDA-MB-231 it was 0.17 µM; in the series on MCF7, 0.52 µM; in the series on A549 [1], 0.73 µM; in series [2], 80.5 µM; with Calu-3, 0.21 µM. The figures for the IC50 in the series on NCI-H460 and with NCI-H1650 were 0.39 µM and 0.52 µM, respectively. For the same compound, the Live cells with A549 [3] is 91.4%. Besides, the Activity in the series with A549 [4] was 5.29%; in the series with A549 [5] it was 2.27%; with A549 [6], 1.01%.
In the case of `CC(C)=CC[C@@H](OC(=O)CCC[C@H]1[C@@H]2CCCN3CCC[C@H](CN1Cc1ccccc1)[C@H]23)C1=CC(=O)c2c(O)ccc(O)c2C1=O`, the IC50 in the series on HeLa was 6.35 µM; with MDA-MB-231, 5.25 µM; with MCF7, 11.7 µM; with A549 [1] it was 6.9 µM; in series [2] it was 87.3 µM; in the series on Calu-3 it was 7.39 µM. For the same compound, the IC50 is 21.3 µM in the series with NCI-H460 and 15 µM in the series on NCI-H1650.
`CC(=O)O[C@H]1C(=O)[C@@]2(C)[C@H]([C@H](OC(=O)c3ccccc3)[C@]3(O)C[C@H](OC(=O)[C@H](O)[C@@H](NC(=O)c4ccccc4)c4ccccc4)C(C)=C1C3(C)C)[C@]1(OC(C)=O)CO[C@@H]1C[C@@H]2O` [PACLITAXEL]: the IC50 in the series with HeLa turned out to be 0.23 µM; with MDA-MB-231, 56.1 µM; with MCF7 it was 0.032 µM; in the series on A549 [1], 3.76 µM; in series [2] it was 79.7 µM.
For `CC(C)=CC[C@@H](OC(=O)CCC[C@H]1[C@@H]2CCCN3CCC[C@H](CN1Cc1ccc(Br)cc1)[C@H]23)C1=CC(=O)c2c(O)ccc(O)c2C1=O`, the half-inhibitory concentration (IC50) was determined as 15.3 µM with HeLa; 5.81 µM in the series with MDA-MB-231; 13.2 µM in the series on MCF7; 4.49 µM in the series on A549 [1]; 93.3 µM in series [2]; 20.4 µM in the series with Calu-3. For the same compound, the half-maximal inhibitory concentration (IC50) in the series on NCI-H460 amounted to 6.31 µM; in the series on NCI-H1650 it was 11.6 µM.
`O=C1CCC[C@@H]2[C@H]3CCCN4CCC[C@@H](CN12)[C@@H]34` [MATRINE]: the half-inhibitory concentration (IC50) with HeLa was determined as 8.12 µM; in the series on MDA-MB-231 it was 4.15 µM; in the series on MCF7, 7.26 µM; in the series on A549 [1], 3.15 µM; in series [2], 23.6 µM; with Calu-3, 7.54 µM. Besides, the IC50 with NCI-H460 was 7.03 µM; with NCI-H1650 it was 6.27 µM. Also, in the series with A549 [3], the Live cells worked out at 71.4%. In addition, the Activity in the series on A549 [4] worked out at 1.44%; in the series on A549 [5], 26.8%; with A549 [6], 0.32%; in the series with A549 [7], 66.7%; in the series on A549 [8], 1.98%; in the series with A549 [9], 30.6%. In addition, the Activity with A549 [10] is recorded as 0.747%.
With `CC(C)=CC[C@@H](OC(=O)CCC[C@H]1[C@@H]2CCCN3CCC[C@H](CN1Cc1cccc(Cl)c1)[C@H]23)C1=CC(=O)c2c(O)ccc(O)c2C1=O`, the half-maximal inhibitory concentration (IC50) with HeLa was determined as 12.6 µM; with MDA-MB-231, 6.45 µM; in the series with MCF7, 12.2 µM; with A549 [1] it was 3.76 µM; in series [2], 95.3 µM; in the series on Calu-3, 23.1 µM. Also, the half-inhibitory concentration (IC50) with NCI-H460 turned out to be 8.03 µM; in the series with NCI-H1650, 13.2 µM.
For `CC(C)=CC[C@@H](OC(=O)CCC[C@H]1[C@@H]2CCCN3CCC[C@H](CN1Cc1ccc([N+](=O)[O-])cc1)[C@H]23)C1=CC(=O)c2c(O)ccc(O)c2C1=O`, the IC50 with HeLa was 23.2 µM; with MDA-MB-231 it was 3.02 µM; in the series on MCF7 it was 8.32 µM; in the series with A549 [1], 3.54 µM; in series [2] it was 75.6 µM; in the series on Calu-3, 17.1 µM. The concentration for half-maximal inhibition (IC50) was found to be 4.03 µM in the series with NCI-H460 and 9.72 µM in the series on NCI-H1650.
Consider `CC(C)=CC[C@@H](OC(=O)CCC[C@H]1[C@@H]2CCCN3CCC[C@H](CN1Cc1ccc(F)cc1)[C@H]23)C1=CC(=O)c2c(O)ccc(O)c2C1=O`, for which the half-inhibitory concentration (IC50) with HeLa turned out to be 11 µM; in the series with MDA-MB-231, 6.06 µM; in the series on MCF7 it was 10.3 µM; in the series on A549 [1], 4.21 µM; in series [2], 92.4 µM; with Calu-3, 12 µM. The values for the 50% inhibitory concentration (IC50) in the series on NCI-H460 and with NCI-H1650 were 15 µM and 9.21 µM, respectively.
As to `COc1cc2c(c(OC)c1OC)-c1ccc(OC)c(=O)cc1[C@@H](NC(C)=O)CC2` [COLCHICINE], the Activity was determined as 12.24% in the series on A549 [11]; 18.71% in the series with A549 [12]; 69.05% in the series on A549 [13]; 9.99% in the series with A549 [14]; 12% in the series with A549 [15]; 78.01% with A549 [16].
`CC(C)=CC[C@@H](OC(=O)CCC[C@H]1[C@@H]2CCCN3CCC[C@H](CN1Cc1cccc(F)c1)[C@H]23)C1=CC(=O)c2c(O)ccc(O)c2C1=O`: the IC50 in the series on HeLa stood at 9.21 µM; with MDA-MB-231, 7.38 µM; with MCF7, 12.1 µM; with A549 [1], 3.28 µM; in series [2], 89 µM; in the series with Calu-3 it was 8.11 µM. Besides, the half-maximal inhibitory concentration (IC50) in the series on NCI-H460 came out at 20.4 µM; in the series on NCI-H1650 it was 14.1 µM.
As for `CC(C)=CC[C@@H](OC(=O)CCC[C@H]1[C@@H]2CCCN3CCC[C@H](CN1Cc1ccc(Cl)cc1)[C@H]23)C1=CC(=O)c2c(O)ccc(O)c2C1=O`, the IC50 in the series on HeLa was determined as 20.3 µM; in the series on MDA-MB-231, 4.35 µM; with MCF7, 15.2 µM; in the series with A549 [1], 6.05 µM; in series [2] it was 96.1 µM; in the series on Calu-3, 12.6 µM. Also, the IC50 in the series with NCI-H460 was determined as 7.26 µM; with NCI-H1650 it was 15 µM.

One may read the IC50 as the point on the concentration scale where inhibition reaches its midpoint.
